Results: ChEMBL document CHEMBL1255478, “Characterization of CSP-1, a novel extended-spectrum beta-lactamase produced by a clinical isolate of Capnocytophaga sputigena” (2010)
In brackets after ≈: the same amount, converted by molar mass.

How the values were obtained:
Type in all cases: functional
Capnocytophaga sputigena [1] = assay: Antimicrobial activity against Capnocytophaga sputigena isolate NOR after 2 days by agar dilution method; settings: 48 h
Escherichia coli [2] = assay: Antimicrobial activity against Escherichia coli TOP10(pNOR-1) expressing CSP-1 gene after 2 days by agar dilution method; settings: 48 h
Capnocytophaga sputigena [3] = assay: Antimicrobial activity against Capnocytophaga sputigena CRBIP 17.39 after 2 days by agar dilution method; settings: CRBIP 17.39, 48 h
Capnocytophaga sputigena [4] = assay: Antimicrobial activity against Capnocytophaga sputigena CIP 104301T after 2 days by agar dilution method; settings: 48 h
Escherichia coli [5] = assay: Antimicrobial activity against Escherichia coli TOP10 after 2 days by agar dilution method; settings: TOP10, 48 h

| Structure (SMILES) | MIC (Capnocytophaga sputigena [1]) [µg/mL] | MIC (Escherichia coli [2]) [µg/mL] | MIC (Capnocytophaga sputigena [3]) [µg/mL] | MIC (Capnocytophaga sputigena [4]) [µg/mL] | MIC (Escherichia coli [5]) [µg/mL] |
| --- | --- | --- | --- | --- | --- |
| CO/N=C(\C(=O)N[C@@H]1C(=O)N2C(C(=O)[O-])=C(C[N+]3(C)CCCC3)CS[C@H]12)c1csc(N)n1 [CEFEPIME] | 0.125 (≈ 0.26 µM) | 4 (≈ 8.32 µM) | < 0.06 | < 0.06 |  |
| CC1(C)S[C@@H]2[C@H](NC(=O)[C@H](C(=O)O)c3ccsc3)C(=O)N2[C@H]1C(=O)O [TICARCILLIN] | 4 (≈ 10.4 µM) | > 512 | 0.25 (≈ 0.65 µM) | 0.25 (≈ 0.65 µM) | 1 (≈ 2.6 µM) |
| CC(=O)OCC1=C(C(=O)O)N2C(=O)[C@@H](NC(=O)Cc3cccs3)[C@H]2SC1 [CEPHALOTHIN] | 64 (≈ 161 µM) | > 512 | 0.125 (≈ 0.315 µM) | 0.25 (≈ 0.631 µM) | 4 (≈ 10.1 µM) |
| CCN1CCN(C(=O)N[C@@H](C(=O)N[C@@H]2C(=O)N3[C@@H]2SC(C)(C)[C@@H]3C(=O)O)c2ccccc2)C(=O)C1=O [PIPERACILLIN] | 0.5 (≈ 0.966 µM) | 16 (≈ 30.9 µM) | 0.25 (≈ 0.483 µM) | 0.25 (≈ 0.483 µM) | 1 (≈ 1.93 µM) |
| CC(C)(O/N=C(\C(=O)N[C@@H]1C(=O)N2C(C(=O)[O-])=C(C[n+]3ccccc3)CS[C@H]12)c1csc(N)n1)C(=O)O [CEFTAZIDIME] | 4 (≈ 7.32 µM) | 0.5 (≈ 0.915 µM) | < 0.06 | < 0.06 | < 0.06 |
| C[C@@H](O)[C@H]1C(=O)N2C(C(=O)O)=C(SCCNC=N)C[C@H]12 [IMIPENEM ANHYDROUS] | 0.06 (≈ 0.2 µM) | 0.06 (≈ 0.2 µM) | 0.06 (≈ 0.2 µM) | 0.06 (≈ 0.2 µM) |  |
| CO/N=C(\C(=O)N[C@@H]1C(=O)N2C(C(=O)O)=C(COC(N)=O)CS[C@H]12)c1ccco1 [CEFUROXIME] | 64 (≈ 151 µM) | 256 (≈ 603 µM) | 0.5 (≈ 1.18 µM) | 0.5 (≈ 1.18 µM) | 0.5 (≈ 1.18 µM) |
| C[C@H]1[C@H](NC(=O)/C(=N\OC(C)(C)C(=O)O)c2csc(N)n2)C(=O)N1S(=O)(=O)O [AZTREONAM] | 0.125 (≈ 0.287 µM) | 16 (≈ 36.7 µM) | 0.125 (≈ 0.287 µM) | 0.125 (≈ 0.287 µM) |  |
| CO[C@@]1(NC(=O)Cc2cccs2)C(=O)N2C(C(=O)O)=C(COC(N)=O)CS[C@@H]21 [CEFOXITIN] | 0.5 (≈ 1.17 µM) | 2 (≈ 4.68 µM) | 0.5 (≈ 1.17 µM) | 0.5 (≈ 1.17 µM) | 2 (≈ 4.68 µM) |
| CC1(C)S[C@@H]2[C@H](NC(=O)[C@H](N)c3ccc(O)cc3)C(=O)N2[C@H]1C(=O)O [AMOXICILLIN] | 256 (≈ 701 µM) | > 512 | 0.25 (≈ 0.684 µM) | 0.25 (≈ 0.684 µM) | 2 (≈ 5.47 µM) |
| CO/N=C(\C(=O)N[C@@H]1C(=O)N2C(C(=O)O)=C(COC(C)=O)CS[C@H]12)c1csc(N)n1 [CEFOTAXIME] | 0.25 (≈ 0.549 µM) | 8 (≈ 17.6 µM) | < 0.06 | < 0.06 | < 0.06 |
